Where a name gives a salt, the structure may show the parent alone. Read-outs that look alike come from different tables or passages of the source. Square brackets hold non-standard residues; d marks the D form. Peptide text beside a SMILES is read from it. 1Nal = N[C@@H](Cc1cccc2ccccc12)C(=O)O; Dmt = Cc1cc(O)cc(C)c1C[C@H](N)C(=O)O
Key:
[1] = test system: MOP receptor; conditions: guinea-pig small intestinal myenteric plexus muscle preparation; ref [18]; cited from earlier work
[2] = test system: male Sprague–Dawley rats; experiment: GI motility, charcoal meal test, icv dosing; type: in vivo, rat; conditions: for Mean (± SEM) % small intestinal transit (%SIT): n = 6, vehicle 77.3 (± 1.9) %
Description: One hour later, the rats were euthanised and the intestine was collected for measurement of the following: (i) the distance from the pylorus to the front edge of the charcoal meal; (ii) the distance between the pylorus and the distal edge of the ileum. The intestinal transit index was determined by dividing measurement (i) by measurement (ii).

[3] = molecular target: DOP receptor; conditions: mean ± SEM; ref [18]; cited from earlier work
Source text: (§1) By comparison, CYX-5 is a truncated analogue of EM-2 (H-Dmt-Pro-Nal-NH2; Nal: 3-(1-naphthyl)-L-alanine) (Fig. 1). In vitro, CYX-5, like CYX-6, was a G-protein biassed ligand at MOP, DOP and KOP receptors. […] In the forskolin-stimulated cAMP assay in HEK-cells expressing murine MOP, D ...

[4] = molecular target: MOP receptor; conditions: mean ± SEM; ref [18]; cited from earlier work
Source text: as §1

[5] = test system: male Sprague–Dawley rats; experiment: Inhibition of castor oil-induced diarrhoea, icv dosing; type: in vivo, rat; conditions: for Mean (± SEM) %AUC of % rats with diarrhoea (% of vehicle control): 8 h, vehicle set at 100%; for Cumulative stool weight-area under the curve (CSW-AUC): at 4 h, vehicle 18.3 (± 1.1) g.h
Description: After an overnight fast (16 h), the pre-dosing stool consistency of individual rats was recorded. […] The weight and consistency of faeces were recorded pre-dose and hourly for 8 h post-dosing for individual animals. The scoring criteria for faeces consistency were as follows: 0 = normal faeces, 1 = well-shaped wet faeces, 2 = shapeless faeces, 3 = shapeless faeces with large amounts of liquid. A score of ≥ 2 for both weight and consistency was defined as diarrhoea.
(§2) Data are presented as mean ± standard error of mean (SEM). One-way analysis of variance was used for analysing the following data: ΔLatency-AUC of warm water tail flick data (Fig. 2B, D); % Small intestinal transit of charcoal meal data and % change of transit relative to vehicle (Fig. 3A, B); AUC of % rats with diarrhoea (% of vehicle control) (Fig. 4B), Cumulative stool weight difference from vehicle (4 h) (Fig. 4D); ΔMV-AUC, ΔRF-AUC and ΔTv-AUC (Fig. 6A–F). Two-way analysis of variance was used for the following data: MV, RF and Tv data for 2 h WPB test (Fig. 5A–F). The analyses were implemented in GraphPad Prism v9.0.0 (GraphPad Software, Inc., La Jolla, CA USA). Dunnett's multiple comparison test was used for post hoc analysis of all the data. For individual animals in the tail flick test, the increase in tail flick latency above baseline (ΔLatency) was calculated for every assessment time point, and the areas under the ΔLatency versus time curve (AUC) values were estimated using trapezoidal integration as using GraphPad™ Prism v9.0.0. For the castor oil-induced diarrhoea test, the percentage of rats with diarrhoea (%AD) was determined for each time point and plotted against time for individual animals. The areas under the curve (%AD-AUC) values were calculated using GraphPad™ Prism v9.0.0. A value of p ≤ 0.05 was the statistical significance criterion. For one-way ANOVA, F values are expressed as Fdf of treatment, residual. For two-way ANOVA, F values are expressed as Fdf of treatment, time, interaction/residual.

[6] = test system: DOP receptor; conditions: inhibition of forskolin-stimulated cAMP formation, HEK cells stably expressing DOP receptor, cited from earlier work
[7] = test system: MOP receptor; conditions: in vitro; ref [18]; cited from earlier work
[8] = test system: male Sprague–Dawley rats; experiment: Respiratory function by whole body plethysmography, icv dosing; type: in vivo, rat
Description: After acclimatisation for 30–60 min, respiratory parameters were recorded for 45 min pre-dosing (three 15 min cycles) and for 2 h post-dosing (eight 15 min cycles). In each cycle, rats breathed normal air for 1 min, followed by a hypercapnic gas mixture (8% CO2, 21% O2 and 71% N2) for 5 min and then a 9 min recovery period breathing normal air. Respiratory parameters recorded by the blinded tester (M.Z.I.) included minute ventilation (MV), respiratory frequency (RF) and tidal volume (Tv) using the BioSystem XA software. The baseline was calculated as the mean difference in MV (ΔMV), RF (ΔRF) and Tv (ΔTv) during the pre-dosing exposure to normal air and the hypercapnic gas mixture.

[9] = test system: DOP receptor; conditions: in vitro; ref [18]; cited from earlier work
[10] = Metabolic stability using rat liver microsomes
[11] = test system: KOP receptor; conditions: inhibition of forskolin-stimulated cAMP formation, HEK cells stably expressing KOP receptor; ref Cai et al. [18]; cited from earlier work
[12] = test system: KOP receptor; conditions: in vitro; ref [18]; cited from earlier work
[13] = test system: MOP receptor; conditions: inhibition of forskolin-stimulated cAMP formation, HEK cells stably expressing MOP receptor; ref Cai et al. [18]; cited from earlier work
[14] = test system: male Sprague–Dawley rats; experiment: Warm-water tail flick test (antinociception), icv dosing; type: in vivo, rat; conditions: for Mean (± SEM) peak tail flick latency: baseline latency 2.0–3.5 s; for Mean (± SEM) ΔLatency-AUC: vehicle 0.8 (± 0.3) s.h
Description: To assess a role for opioid receptors in mediating antinociception, rats were dosed with naloxone (10 mg/kg; sc) 10 min prior icv dosing with CYX-5 at the highest dose tolerated (20 nmol).
as §2

[15] = test system: male Sprague–Dawley rats; experiment: Tolerability / neuro-excitatory clinical signs after icv dosing
[16] = test system: male Sprague–Dawley rats; conditions: cited from earlier work; for Antinociception, warm water tail flick test: icv, male Sprague–Dawley rats, ref Imam et al. [19]
[17] = test system: male Sprague–Dawley rats; conditions: cited from earlier work
[18] = test system: male Sprague–Dawley rats; conditions: cited from earlier work; remark: listed apart in the source
[19] = test system: male Sprague–Dawley rats; conditions: cited from earlier work; remark: listed apart in the source
[20] = test system: mice; conditions: sc, ref [27]; cited from earlier work
[21] = icv, male Sprague–Dawley rats, √/X not defined
[22] = icv 100 nmol, n = 6, biphasic profile, data re-used, ref [19]
[23] = icv 100 nmol, data re-used, ref [19]
[24] = icv, male Sprague–Dawley rats, ref Imam et al. [19], Kuo et al. [23]

Compound: Cc1cc(O)cc(C)c1C[C@H](N)C(=O)N1CCC[C@H]1C(=O)N[C@@H](Cc1cccc2ccccc12)C(N)=O [CYX-5, H-Dmt-Pro-Nal-NH2] (H-[Dmt]-Pro-[1Nal]-NH2)
- MOP receptor agonism ex vivo [1]: potent MOP receptor agonism
- Mean (± SEM) % small intestinal transit (%SIT) ([2]; icv 3 nmol): 68.7 (± 2.7) %
- Mean (± SEM) % small intestinal transit (%SIT) ([2]; icv 10 nmol): 64.8 (± 6.8) %
- Mean (± SEM) % small intestinal transit (%SIT) ([2]; icv 20 nmol): 64.4 (± 3.4) %
- Constipation, inhibition of GI motility [2, 21]: √
- Ki [3]: 121 ± 10.2 nM
- Ki [4]: 0.7 ± 0.08 nM
- Mean (± SEM) %AUC of % rats with diarrhoea (% of vehicle control) ([5]; icv 3 nmol, n = 7): 72.6 (± 10.8) %AD.h
- Cumulative stool weight-area under the curve (CSW-AUC) ([5]; icv 3 nmol): 11.7 (± 1.5) g.h
- Mean (± SEM) %AUC of % rats with diarrhoea (% of vehicle control) ([5]; icv 10 nmol, n = 6): 78.5 (± 7.6) %AD.h
- Cumulative stool weight-area under the curve (CSW-AUC) ([5]; icv 10 nmol): 13.4 (± 4.1) g.h
- Mean (± SEM) %AUC of % rats with diarrhoea (% of vehicle control) ([5]; icv 20 nmol, n = 6): 68.4 (± 2.6) %AD.h
- Cumulative stool weight-area under the curve (CSW-AUC) ([5]; icv 20 nmol): 2.5 (± 0.9) g.h
- Time to develop diarrhoea in all animals ([5]; icv 3, 10 and 20 nmol, oral castor oil 2.5 ml, vehicle 3 h): 5 h
- In vitro agonist or antagonist activity, DOP receptor ([6]; ref Cai et al. [18]): Antagonist^a
- Recruitment of β-arrestin2 at MOP receptor [7]: lack of recruitment
- Effect on minute ventilation ([8]; icv 20 nmol, n = 6, hypercapnic conditions (8% CO2), awake rats): significant stimulatory effect
- Effect on tidal volume ([8]; icv 20 nmol, n = 6, hypercapnic gas mixture): significant increase
- Effect on respiratory frequency ([8]; icv 20 nmol, n = 6, normal air and hypercapnic gas exposure): insignificant
- Respiratory function, stimulation of minute ventilation ([8]; icv, hypercapnic conditions, awake freely moving rats, √/X not defined): √
- Recruitment of β-arrestin2 at DOP receptor [9]: lack of recruitment
- half-life [10]: 57.6 min
- In vitro agonist or antagonist activity, KOP receptor [11]: Agonist^a
- Recruitment of β-arrestin2 at KOP receptor [12]: lack of recruitment
- In vitro agonist or antagonist activity, MOP receptor [13]: Agonist^a
- Mean (± SEM) peak tail flick latency ([14]; icv 3 nmol, n = 6, rats): 5.2 (± 0.6) s
- Mean (± SEM) ΔLatency-AUC ([14]; icv 3 nmol, n = 6): 3.2 (± 0.9) s.h
- Mean (± SEM) peak tail flick latency ([14]; icv 10 nmol, n = 6, rats): 4.0 (± 0.3) s
- Mean (± SEM) ΔLatency-AUC ([14]; icv 10 nmol, n = 6): 2.1 (± 0.5) s.h
- Antinociception (tail flick), in words ([14]; icv 20 nmol, highest dose tolerated): moderate antinociception
- Mean (± SEM) peak tail flick latency ([14]; icv 20 nmol, n = 7, rats): 5.5 (± 0.5) s
- Mean (± SEM) ΔLatency-AUC ([14]; icv 20 nmol, n = 7, significantly different from vehicle): 4.8 (± 0.6) s.h
- Mean time to peak effect (tail flick) ([14]; icv 3, 10 and 20 nmol, post-dose): 1 h
- Antinociception, warm water tail flick test [14, 21]: √
- Effect of naloxone pre-treatment on antinociception ([14]; naloxone 10 mg/kg sc 10 min prior to icv 20 nmol): completely attenuated
- Duration of postural abnormalities (flattened torso, splayed legs, ataxia) ([15]; icv 20 nmol): up to 90 min
- Rats with mild, intermittent, transient clinical signs of neuroexcitation ([15]; icv 20 nmol): ~ 50%
- Maximum tolerated dose, icv ([15]; pilot study, rats): 20 nmol
- Side effects at 30 nmol icv ([15]; preliminary experiment, icv 30 nmol, convulsions, barrel roll, wet-dog shakes, excessive alertness): pronounced neuro-excitatory side effects

Compound: CN1CC[C@]23c4c5ccc(O)c4O[C@H]2[C@@H](O)C=C[C@H]3[C@H]1C5 [morphine, morphine hydrochloride]
- First antinociceptive peak tail flick latency, mean (± SEM) [16, 22]: 8.9 (± 0.5) s
- Second antinociceptive peak tail flick latency, mean (± SEM) [16, 22]: 10.0 (± 0.0) s
- Antinociception (tail flick), in words [16, 23]: pronounced antinociception
- Mean time to first peak effect (tail flick) [16, 23]: 0.75 h
- Mean time to second peak effect (tail flick) [16, 23]: 1.5 h
- Antinociception, warm water tail flick test ([16]; Kuo et al. [23]): √^b,d
- Mean (± SEM) % small intestinal transit (%SIT) ([17]; icv 100 nmol, n = 12, data re-used, ref [19]): 22.0 (± 3.4) %
- Constipation, inhibition of GI motility [17, 24]: √^b,d
- In vitro agonist or antagonist activity, DOP receptor ([6]; ref Kuo et al. [36]): Agonist^c
- Time by which animals developed diarrhoea ([18]; icv 100 nmol, oral castor oil, data re-used, ref [19]): 7 h
- Constipation, inhibition of castor oil-induced diarrhoea [18, 24]: √^b,d
- Effect on respiratory frequency ([19]; icv 100 nmol, n = 6, hypercapnic gas mixture, relative to vehicle, data re-used, ref [19]): reduced respiratory frequency significantly
- Effect on minute ventilation ([19]; icv 100 nmol, n = 6, hypercapnic gas mixture, time of peak effect, data re-used, ref [19]): reduced minute ventilation
- Respiratory function, depression of minute ventilation ([19]; icv, hypercapnic conditions, awake rats, ref Imam et al. [19], Kuo et al. [23]): √^b,d

Compound: H-Dmt-Pro-Tmp-Tmp-NH2 [CYX-6]
- Antinociception, warm water tail flick test [16]: √^b
- In vitro agonist or antagonist activity, DOP receptor ([6]; ref Cai et al. [18]): Antagonist^a
- In vitro agonist or antagonist activity, KOP receptor [11]: Antagonist^a
- In vitro agonist or antagonist activity, MOP receptor [13]: Agonist^a
- Respiratory function, stimulation of minute ventilation ([19]; icv, hypercapnic conditions, awake rats, ref Imam et al. [19]): √^b

Compound: CN1CC[C@]23c4c5ccc(O)c4O[C@H]2C(=O)CC[C@@]3(OCCCc2ccccc2)[C@H]1C5 [14-O-phenylpropyloxymorphone]
- Fold less potent for inhibition of GI transit compared with antinociception [20]: 2.4 fold

Source: article PMC10227131 (Pharmacological Reports, 2023)
